Data on 5 molecules can be found in patent US7321046B2, “Analogs of dictyostatin, intermediates therefor and methods of synthesis thereof” (University of Pittsburgh, priority 2002, dated 2008).

A word on the GI50: it is the concentration that inhibits growth by half. Broadly, the EC50 is the concentration needed to bring the measured effect to its halfway point.

For data set [1] the following is noted: ester bond, toluene, 2 steps.
Data set [2] concerns human ovarian carcinoma cells (1A9). In words: Antiproliferative assay (GI50, MTS). Type of data set: cell-based. Particulars: for antiproliferative potency / GI50 values (in words): Table 1 (1A9 and mutant lines); for GI50: read-out: GI50 ± S.D., 1A9 parental cells, 72 h incubation. As to the method:
(§1) Representative analogs were examined for their antiproliferative activities against human ovarian carcinoma 1A9 cells and their paclitaxel-resistant mutants, 1A9/Ptx10 and 1A9/Ptx22.
[…] Cells were maintained in RPMI medium with 10% FBS in it, plated in tissue culture plates, and allowed to grow for 48-72 h before transferring them into 96-well plates. Cells were allowed to attach and grow for 48 h in 96-well plates after which they were treated with either control (DMSO) or drug in triplicate/quadruplicate. Cells were incubated with the compounds for 72 h. Cells were treated with MTS reagent before reading the plate in a Dynamax plate reader for determining the cell number. The fifty percent growth inhibition values (GI50 values) were calculated for the compounds against all the three cell lines.

The subject of data set [3] is 1A9/Ptx10 (Phe270 −> Val) β-tubulin mutant cells. In words: Antiproliferative assay (GI50, MTS), paclitaxel-resistant clone. Type of data set: cell-based, human. The following applies: for fold-resistance: 1A9/Ptx10 versus parental 1A9; for GI50: read-out: GI50 ± S.D., 1A9/Ptx10 (Phe270 −> Val), 72 h incubation. The protocol:
as §1
(§2) The effects of dictyostatin and its analogs on growth inhibition of parental ([…]) and paclitaxel-resistant (1A9/Ptx10 and Ptx22) ovarian adenocarcinoma cell lines were evaluated following the antiproliferative assay protocol as described earlier (Minguez et al., 2003; Choy et al., 2003; Lazo et al., 2001). Cells were maintained in RPMI medium with 10% FBS in it, plated in tissue culture plates, and allowed to grow for 48-72 h before transferring them into 96-well plates. Cells were allowed to attach and grow for 48 h in 96-well plates after which they were treated with either control (DMSO) or drug in triplicate/quadruplicate. Cells were incubated with the compounds for 72 h. Cells were treated with MTS reagent before reading the plate in a Dynamax plate reader for determining the cell number. The fifty percent growth inhibition values (GI50 values) were calculated for the compounds against all the three cell lines.

For data set [4], the system named is 1A9/Ptx22 (Ala364 −> Thr) β-tubulin mutant cells. The data set is described as above. Type of data set: cell-based, human. Particulars: for fold-resistance: 1A9/Ptx22 versus parental 1A9; for GI50: read-out: GI50 ± S.D., 1A9/Ptx22 (Ala364 −> Thr), 72 h incubation. The protocol:
as §1, §2

The subject of the next data set is T1, Bovine brain tubulin.
T1 construct: Bovine brain tubulin (10 μM) in 0.2 M MSG, 15 min at 20° C
Description: Pelleting assay (tubulin assembly EC50 determination). The following applies: tubulin 10 μM in 0.2 M MSG, 15 min at 20° C.; for EC50: concentration required to polymerize 50% of tubulin, read-out: EC50 (μM) ± SD (N). It is filed as biochemical. As to the method: Dictyostatin and representative analogs were evaluated in a quantitative assay for their ability to promote tubulin polymerization. […] When the percent polymer formed was determined in the reactions, a comparison of the activities of all the analogs could be made.
The assay was performed under three different reaction conditions following the procedure reported earlier (Gapud et al., 2004). Reaction condition 1 included 0.2 M monosodium glutamate (MSG), 10 μM tubulin, 5% DMSO and varying concentrations of test agents. Reaction condition 2 included 0.8 M MSG, 400 μM GTP, 10 μM tubulin, 5% DMSO, and varying concentrations of test agents. Reaction condition 3 had 0.6 M MSG, 200 μM GTP, and 10 μM tubulin, and 5% DMSO, and varying concentrations of the test agents. The experimental protocol for all the three reaction conditions was the following. The reaction mixtures were incubated at room temperature (20-22° C.) for 15 min and spun for 10 min at 14,000 rpm in an Eppendorf microtube centrifuge. Aliquots of the supernatants were removed and assayed for protein content by the method of Lowry.

In data set [5] the test system is microtubules (tubulin polymer). Description: Radiolabeled ligand binding assays. The following applies: test agent 4 μM; radiolabel 4.0 μM; 37° C. The protocol:
The abilities of test agents to inhibit the binding of radiolabeled forms of the microtubule stabilizers paclitaxel, discodermolide and epothilone B from tubulin polymer were determined.
[^3H]Paclitaxel, [^3H]discodermolide and [^14C]epothilone B solutions were prepared as 125 μM stock solutions in 50% DMSO. Radiolabeled compound (final concentration, 4.0 μM) and test agents at final concentrations noted in the text and tables were mixed in 50 μL of 4:1 (v/v) 0.75 M aqueous MSG/DMSO and warmed to 37° C. Meanwhile, a reaction mixture containing 0.75 M MSG, 2.5 μM tubulin, and 25 μM ddGTP was prepared and incubated at 37° C. for 30 min to form microtubuless. A 200 μL aliquot of the microtubule mixture was added to the drug mixtures, and incubation continued for 30 min at 37° C. Reaction mixtures were centrifuged in an Eppendorf 5417C centrifuge at 14,000 rpm for 20 min at room temperature. Radiolabel in the supernatants (100 μL) was determined by scintillation spectrometry.

In the next data set the test system is HeLa cells. Description: Multiparameter fluorescence high information content analysis of cellular effects. It is filed as cell-based. Also on record: unit not given here. The following applies: 24 h treatment; for Minimum detectable cellular change, Nuclear condensation: Hoechst 33342. The protocol:
HeLa cells were plated on collagen-coated 384-well microtiter plates, allowed to attach, then treated for 24 h with test agents. Test agent concentrations began at 1 μM, and two-fold dilutions were made to levels below 1 nM. After the treatment period, the cells were fixed with formalin and their chromatin stained with Hoechst 33342. Cells were permeabilized and treated with primary antibodies for α-tubulin and phosphohistone H3, and then with fluorophore-labeled secondary antibodies. The three fluorescent channels were then examined on an ArrayScan II, which gives quantitative pixel distribution and density information in each channel on a per cell basis.
HeLa cells growing at log phase were trypsinized and plated in 40 μL at a density of 7,000-8,000 cells per well in calf skin collagen I-coated 384-well plates (Falcon #3962; Fisher Scientific). Cells were exposed to test agents or 0.5% DMSO within 2-8 h of plating. Concentrated DMSO stock solutions of all test agents were diluted into solutions of HBSS medium plus 10% FBS and added to the microplate wells (10 μL per well), using an automated liquid handling system (Biomek® 2000; Beckman-Coulter, Inc.) to provide a serial 2-fold dilution of each test agent. The cells were incubated in the presence of test agents for 24 h. At the end of the incubation, the medium was removed and replaced with HBSS containing 4% formaldehyde and 10 μg/mL Hoechst 33342 (25 μL/well) to fix the cells and fluorescently label their chromatin. After incubation at room temperature for 20-30 min, the solution was removed from each well and replaced with HBSS (100 μL/well). Further reagent additions were made to the microplates using the Biomek 2000. After removing the HBSS from each well, cells were permeabilized for 5 min at room temperature with 0.5% (w/w) Triton X-100 in HBSS (10 μL/well). This step extracts a fraction of the soluble cellular components, including soluble tubulin. The wells were washed with HBSS (100 μL/well), followed by addition of a primary antibody solution containing mouse anti-α-tubulin (1:3000) and rabbit anti-phosphohistone H3 (1:500) in HBSS (10 μL/well). After 1 h at room temperature, the wells were washed with HBSS as above, followed by the addition of a secondary antibody solution containing fluorescein-5-isothiocyanate (FITC)-labeled donkey anti-mouse (1:300) and Cy3-labeled donkey anti-rabbit (1:300) antibodies diluted in HBSS (10 μL/well). After 1 h at room temperature, the wells were washed as above, and HBSS was added (100 μL/well). The plates were placed in an ArrayScan® HCS Reader with the Target Activation BioApplication Software coupled to Cellomics® Store and the vHCS™ Discovery Toolbox (Cellomics, Inc.) to analyze images. Briefly, the instrument was used to scan multiple optical fields, each with multiparameter fluorescence, within a subset of the wells of the 384-well microplate. The BioApplication software produced multiple numerical feature values, such as subcellular object intensities, shapes, and location for each cell within an optical field. […] A nuclear mask was generated from Hoechst 33342-stained nuclei, and object identification thresholds and shape parameters were set such that the algorithm identified over 90% of the nuclei in each field. Objects that touched each other or the edge of the image were excluded from the analysis. Tubulin mass was defined as the average green (FITC) pixel intensity in an area defined by the Hoechst-defined nuclear mask. This cytoplasmic area around the nucleus contains cytoskeletal components is a region from which sensitive measurements of cytoplasmic characteristics can be made.

Where two headings read alike, the source gives them in different places.

Regarding `C=C/C=C\[C@H](C)[C@@H]1OC(=O)/C=C\C=C\[C@@H](C)[C@@H](O[Si](C)(C)C(C)(C)C)C[C@H](O[Si](C)(C)C(C)(C)C)/C=C\[C@H](C)[C@H](O[Si](C)(C)C(C)(C)C)[C@@H](C)CCCC[C@@H](O[Si](C)(C)C(C)(C)C)[C@@H]1C`, in data set [1] (from C=C/C=C\[C@H](C)[C@H](O)[C@@H](C)[C@@H](CCCC[C@H](C)[C@@H](O[Si](C)(C)C(C)(C)C)[C@@H](C)/C=C\[C@H](C[C@H](O[Si](C)(C)C(C)(C)C)[C@H](C)/C=C/C=C\C(=O)O)O[Si](C)(C)C(C)(C)C)O[Si](C)(C)C(C)(C)C, 2,4,6-trichlorobenzoyl chloride / Et3N / DMAP, 2.0 mM), the ring closure, yield of all isomers was found to be 76%.
The molecule `C=C/C=C\[C@H](C)[C@@H]1OC(=O)/C=C\C=C\[C@@H](C)[C@@H](O[Si](C)(C)C(C)(C)C)C[C@H](O[Si](C)(C)C(C)(C)C)/C=C\[C@H](C)[C@H](O[Si](C)(C)C(C)(C)C)[C@@H](C)C[C@@H](C)CC[C@@H](O[Si](C)(C)C(C)(C)C)[C@@H]1C` gave a ring closure, yield of all isomers in data set [1] (from C=C/C=C\[C@H](C)[C@H](O)[C@@H](C)[C@@H](CC[C@H](C)C[C@H](C)[C@@H](O[Si](C)(C)C(C)(C)C)[C@@H](C)/C=C\[C@H](C[C@H](O[Si](C)(C)C(C)(C)C)[C@H](C)/C=C/C=C\C(=O)O)O[Si](C)(C)C(C)(C)C)O[Si](C)(C)C(C)(C)C, 2,4,6-trichlorobenzoyl chloride / Et3N / DMAP (Yamaguchi), 1.71 mM, 25.0 °C, 12.0 h) of 78%.
On to `C=C/C=C\[C@H](C)[C@@H]1OC(=O)/C=C\C=C\[C@@H](C)[C@@H](O[Si](C)(C)C(C)(C)C)C[C@H](O[Si](C)(C)C(C)(C)C)/C=C\[C@H](C)[C@H](O[Si](C)(C)C(C)(C)C)[C@@H](C)C[C@@H](C)CC[C@H](O[Si](C)(C)C(C)(C)C)[C@@H]1C`, for which the ring closure, yield of all isomers in data set [1] (from C=C/C=C\[C@H](C)[C@H](O)[C@@H](C)[C@H](CC[C@H](C)C[C@H](C)[C@@H](O[Si](C)(C)C(C)(C)C)[C@@H](C)/C=C\[C@H](C[C@H](O[Si](C)(C)C(C)(C)C)[C@H](C)/C=C/C=C\C(=O)O)O[Si](C)(C)C(C)(C)C)O[Si](C)(C)C(C)(C)C, 2,4,6-trichlorobenzoyl chloride / Et3N / DMAP (Yamaguchi), 1.74 mM, 25.0 °C, 12.0 h) came out at 78%.
As to `C=CC=CC(C)C1OC(=O)C=CC=CC(C)C(O)CC(O)C=CC(C)C(O)C(C)CC(C)CCC(O)C1C` [Compound 109, 8(S),10(S),14(R),20(S)-Tetrahydroxy-7(S),13(S),15(R),17(S),21(S)-pentamethyl-22(S)-(1(S)-methyl-penta-2,4-dienyl)oxacyclodocosa-3(E),5(E),11(Z)-trien-2-one], in data set [2], the “antiproliferative potency / GI50 values (in words)” value is listed as “mid micromolar GI50 values” and the GI50 worked out at 25 ± 2 µM. Further, in data set [3], the fold-resistance is given as 1 fold and the GI50 came to 25 ± 1 µM. For the same molecule, in data set [4], the fold-resistance was found to be 1.2 fold and the GI50 was 30 ± 1 µM. In addition, in the data set on Bovine brain tubulin, the “% Tubulin polymerized by 50 μM test agent” value was determined as 5 ± 4% and the EC50 is more than 50 µM. Further, the “Percent inhibition of radiolabel from microtubules, [3H]Paclitaxel” value in data set [5] is on record as 0 ± 1%. Besides, in the data set on HeLa cells, the “Minimum detectable cellular change, Phosphohistone H3” value was >5000 (4); the “Minimum detectable cellular change, Tubulin polymer intensity” value is recorded as >5000 (4); the “Minimum detectable cellular change, Nuclear condensation” value is >5000 (4).
Take `CC(=O)O[C@H]1C(=O)[C@@]2(C)[C@H]([C@H](OC(=O)c3ccccc3)[C@]3(O)C[C@H](OC(=O)[C@H](O)[C@@H](NC(=O)c4ccccc4)c4ccccc4)C(C)=C1C3(C)C)[C@]1(OC(C)=O)CO[C@@H]1C[C@@H]2O` [paclitaxel, reference compound]: the GI50 in data set [2] (Homo sapiens, Ovarian carcinoma cell, 72 h) was found to be 0.00071 ± 0.00011 µM; in data set [3] (Homo sapiens, 1A9/ptx-10, 72 h), 0.064 ± 0.008 µM; in data set [4] (Homo sapiens, 1A9/ptx-22, 72 h), 0.051 ± 0.009 µM. Besides, the “antiproliferative potency / GI50 values (in words)” value in data set [2] is “subnanomolar potency”. Besides, the fold-resistance in data set [3] is 90 fold; in data set [3] (listed as Paclitaxel), “ca. 90 fold”; in data set [4], 72 fold; in data set [4] (listed as Paclitaxel), approximately 70 fold. Also, in the data set with Bovine brain tubulin, the “% Tubulin polymerized by 50 μM test agent” value is recorded as 89 ± 6%. For the same molecule, the concentration for a half-maximal effect (EC50) in the data set with Bovine brain tubulin turned out to be 25 ± 3 µM. For the same molecule, the “Percent inhibition of radiolabel from microtubules, [3H]Discodermolide” value in data set [5] is recorded as 6 ± 5 (3) %. Also, the “Percent inhibition of radiolabel from microtubules, [14C]Epothilone B” value in data set [5] is 26 ± 1 (3) %. Also, in the data set on HeLa cells, the “Minimum detectable cellular change, Phosphohistone H3” value is given as 17.5 ± 6.8 (4). For the same molecule, the “Minimum detectable cellular change, Tubulin polymer intensity” value with HeLa cells is recorded as 8.0 ± 2.9 (4). Moreover, in the data set on HeLa cells, the “Minimum detectable cellular change, Nuclear condensation” value is recorded as 40.2 ± 13.9 (4).
